The assay deals with MYT1 protein (Homo sapiens (Human), UniProt Q99640). Put plainly: Test for binding to ATP binding site of MYT1 (Kinase Tracer 178 / Eu-Anti-GST antibody TR-FRET). The note with it: ATP binding site of MYT1, 30 minutes at room temperature. Background: Time-resolved FRET reads energy transfer from a long-lived donor to a nearby acceptor.

This is an account of results in US20260062412A1, “NITROGEN-CONTAINING HETEROCYCLIC COMPOUND HAVING MYT1 INHIBITORY ACTIVITY” (CHUGAI SEIYAKU KABUSHIKI KAISHA, priority 2023, published 2026).

Chain of MYT1 protein (Q99640 whole entry): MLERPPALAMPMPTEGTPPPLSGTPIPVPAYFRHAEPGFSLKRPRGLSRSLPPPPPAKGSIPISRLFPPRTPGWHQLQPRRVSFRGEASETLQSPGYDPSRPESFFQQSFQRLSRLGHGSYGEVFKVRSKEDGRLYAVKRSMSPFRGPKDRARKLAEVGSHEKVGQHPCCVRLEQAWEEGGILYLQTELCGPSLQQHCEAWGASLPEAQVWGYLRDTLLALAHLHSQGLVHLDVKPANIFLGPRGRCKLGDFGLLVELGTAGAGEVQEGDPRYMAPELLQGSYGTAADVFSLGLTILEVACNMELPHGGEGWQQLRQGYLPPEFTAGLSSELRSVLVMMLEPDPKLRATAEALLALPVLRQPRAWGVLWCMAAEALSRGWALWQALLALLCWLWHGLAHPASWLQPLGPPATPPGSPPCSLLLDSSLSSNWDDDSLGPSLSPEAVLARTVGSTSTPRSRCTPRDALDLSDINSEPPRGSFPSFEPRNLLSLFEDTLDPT

As a reminder, the IC50 is the concentration that gives 50% inhibition. High values mean weaker potency, low ones greater potency. `CC(C)(O)CCOc1cc2c(-c3ccc(F)c4[nH]ncc34)c(N)c(=O)[nH]c2c2cccnc12` [Compound C20, 3-Amino-4-(7-fluoro-1H-indazol-4-yl)-6-(3-hydroxy-3-methylbutoxy)-1H-1,7-phenanthrolin-2-one] came in with a concentration for half-maximal inhibition (IC50) of 3.6 nM.

`Nc1c(-c2ccc(F)c3[nH]ncc23)c2cc(OC(F)F)c3ncccc3c2[nH]c1=O` [Compound C21, 3-Amino-6-(difluoromethoxy)-4-(7-fluoro-1H-indazol-4-yl)-1H-1,7-phenanthrolin-2-one]: the IC50 was 2.8 nM.

For the compound `C[C@H](Oc1cc2c(-c3ccc(F)c4[nH]ncc34)c(N)c(=O)[nH]c2c2cccnc12)C(F)(F)F` [Compound C22, 3-Amino-4-(7-fluoro-1H-indazol-4-yl)-6-[(2S)-1,1,1-trifluoropropan-2-yl]oxy-1H-1,7-phenanthrolin-2-one], the IC50 turned out to be 7.9 nM.

`Nc1c(-c2ccc(F)c3[nH]ncc23)c2cc(OC3CC(F)(F)C3)c3ncccc3c2[nH]c1=O` [Compound C23, 3-Amino-6-(3,3-difluorocyclobutyl)oxy-4-(7-fluoro-1H-indazol-4-yl)-1H-1,7-phenanthrolin-2-one] registered an IC50 of 5 nM.

With `CC(C)(O)COc1cc2c(-c3ccc(F)c4[nH]ncc34)c(N)c(=O)[nH]c2c2cccnc12` [Compound C24, 3-Amino-4-(7-fluoro-1H-indazol-4-yl)-6-(2-hydroxy-2-methylpropoxy)-1H-1,7-phenanthrolin-2-one], the IC50 turned out to be 6.5 nM.

`CC(F)(F)COc1cc2c(-c3ccc(F)c4[nH]ncc34)c(N)c(=O)[nH]c2c2cccnc12` [Compound C25, 3-Amino-6-(2,2-difluoropropoxy)-4-(7-fluoro-1H-indazol-4-yl)-1H-1,7-phenanthrolin-2-one] gave an IC50 of 2.8 nM.

With `COCC(F)(F)COc1cc2c(-c3ccc(F)c4[nH]ncc34)c(N)c(=O)[nH]c2c2cccnc12` [Compound C26, 3-Amino-6-(2,2-difluoro-3-methoxypropoxy)-4-(7-fluoro-1H-indazol-4-yl)-1H-1,7-phenanthrolin-2-one], the IC50 was determined as 2.3 nM.

As for `C[C@@H](Oc1cc2c(-c3ccc(F)c4[nH]ncc34)c(N)c(=O)[nH]c2c2cccnc12)C(F)(F)F` [Compound C27, 3-Amino-4-(7-fluoro-1H-indazol-4-yl)-6-[(2R)-1,1,1-trifluoropropan-2-yl]oxy-1H-1,7-phenanthrolin-2-one], the IC50 amounted to 4.4 nM.

`Nc1c(-c2ccc(F)c3[nH]ncc23)c2cc(O[C@H]3C[C@@H](F)C3)c3ncccc3c2[nH]c1=O` [Compound C28, 3-Amino-4-(7-fluoro-1H-indazol-4-yl)-6-((1s,3s)-3-fluorocyclobutoxy)-1,7-phenanthrolin-2(1H)-one] registered a 50% inhibitory concentration (IC50) of 1.8 nM.

`CO[C@H]1C[C@@H](Oc2cc3c(-c4ccc(F)c5[nH]ncc45)c(N)c(=O)[nH]c3c3cccnc23)C1` [Compound C29, 3-Amino-4-(7-fluoro-1H-indazol-4-yl)-6-((1s,3s)-3-methoxycyclobutoxy)-1,7-phenanthrolin-2(1H)-one] registered a 50% inhibitory concentration (IC50) of 3.3 nM.

As to `CO[C@H]1C[C@H](Oc2cc3c(-c4ccc(F)c5[nH]ncc45)c(N)c(=O)[nH]c3c3cccnc23)C1` [Compound C30, 3-Amino-4-(7-fluoro-1H-indazol-4-yl)-6-((1r,3r)-3-methoxycyclobutoxy)-1,7-phenanthrolin-2(1H)-one], the concentration for half-maximal inhibition (IC50) was 5.8 nM.

Compound `N#C[C@H]1C[C@H](Oc2cc3c(-c4ccc(F)c5[nH]ncc45)c(N)c(=O)[nH]c3c3cccnc23)C1` [Compound C31, (1r,3r)-3-[[3-Amino-4-(7-fluoro-1H-indazol-4-yl)-2-oxo-1H-1,7-phenanthrolin-6-yl]oxy]cyclobutane-1-carbonitrile] returned a concentration for half-maximal inhibition (IC50) of 4.3 nM.

The compound `Nc1c(-c2ccc(F)c3[nH]ncc23)c2cc(OCCC(F)F)c3ncccc3c2[nH]c1=O` [Compound C32, 3-Amino-6-(3,3-difluoropropoxy)-4-(7-fluoro-1H-indazol-4-yl)-1H-1,7-phenanthrolin-2-one] yielded a 50% inhibitory concentration (IC50) of 3.5 nM.
